Earlier results on six compounds are cited in article PMC11915035, “Characterization of [^3H]Propionylated Human Peptide YY-A New Probe for Neuropeptide Y Y2 Receptor Binding Studies” (ACS Pharmacology & Translational Science, 2025).

One series has as its system Y2R. The note with it: read-out: literature IC50, sodium-containing buffer.
Series [1] deals with calf hippocampus membrane preparation. The conditions noted are these: Krebs–Ringer/20 mM HEPES, 137 mM Na+; species of peptide not indicated; ref Czerwiec et al.[34]. The source says:
(§1) Table 1 Reported Peptidic Radioligands Used for Y2R Binding Studies | column: Kd [nM]

The next series has as its target pY2R. The note with it: COS-7 pY2R; 50 mM HEPES, 0 mM Na+; species of peptide not indicated; ref Rose et al.[2].
Description: as §1

Series [2] addresses rat hippocampal membrane preparation. The note with it: KRP buffer, […] Na+; species of peptide not indicated; ref Dumont et al.[25].
Description: as §1

The test system of another series is Y1R, Y2R, Y4R, Y5R. The note with it: ref 2−4. From the text: Activation of all four receptor subtypes is induced by the homologous neuropeptides NPY, peptide YY (PYY), and pancreatic polypeptide (PP).[1]

Like-named read-outs stand apart in the source and are kept apart here.

Turning to `CCN(CC)C(=O)C(c1ccccc1)N1CCN(c2ccc(NC(=O)c3ccccc3-c3cccnc3)cc2F)CC1` (stereo not shown) [JNJ31020028, N-(4–4-[2-(diethylamino)-2-oxo-1-phenylethyl]piperazin-1-yl-3-fluorophenyl)-2-pyridin-3-ylbenzamide], the IC50 was 8500 pM with Y2R (ref Shoblock et al.[39]) and 6000 pM with Y2R (ref Swanson et al.[59]).

In the case of “N-[^3H]propionyl-NPY: tritiated NPY derivative, most likely [^3H]propionylated at the ε-amino group of Lys^4”, the Kd in series [1] is 700 pM. As to “[^125I]NPY: iodine-125 labeled derivative of NPY; species human or not indicated”, the Kd on pY2R was 580 pM. For the compound “[^125I]PYY (3–36): iodine-125 labeled derivative of PYY”, in series [2], the Kd is 13 pM. On to “[^125I]PYY: iodine-125 labeled derivative of PYY; species porcine or not indicated”, for which, at pY2R, the Kd was 270 pM. For the compound pancreatic polypeptide [PP], in the series with Y1R, Y2R, Y4R, Y5R, the “YR binding preference” value is “clear preference for Y4R over the other YRs”.
